Assay results reported in publication PMC9946977, “Identification of linderalactone as a natural inhibitor of SHP2 to ameliorate CCl4-induced liver fibrosis” (Frontiers in Pharmacology, 2023).

Key:
LX-2 cells = assay: LX-2 cells: fibrogenic gene expression and Smad2/3 phosphorylation; format: cell-based, human
Method: The LX-2 cell line was purchased from the Cell Bank Type Culture Collection of the Chinese Academy of Sciences (Shanghai, China). Cells were cultured in DMEM supplemented with 10% [v/v] foetal bovine serum, 2 mM glutamine, 100 U/ml penicillin, and […] streptomycin. SHP-2 and control siRNAs were obtained from Suzhou GenePharma Co., Ltd. (sense 5'-3': GAGAGAGGAAAGAGUAAAUTT; antisense 5'-3': AUUUACUCUUUCCUCUCUCTT). Transfection was performed according to the manufacturer’s instructions. Subsequent real-time PCR and western blotting were performed to analyse transfection efficiency.
Total RNA was extracted from liver tissues and LX-2 cells using the TRIzol reagent. cDNA was synthesised using a PrimeScript RT Master Mix kit. […] Relative expression of target genes was normalised to actin, analysed by the delta-delta-CT method and given as a ratio compared with the vehicle control. […]
Liver proteins were isolated by using a lysis buffer containing 50 mM Tris-HCl (pH7.5), 150 mM NaCl, 1 mM EDTA, 20 mM NaF, 0.5% NP-40, 10% glycerol, 1 mM phenylmethylsulphonyl fluoride, 10 μg/mL aprotinin, 10 μg/mL leupeptin, and 10 μg/mL pepstatin. The supernatants were collected after centrifugation at 3,000 g for 10 min at 4°C, and the protein concentration of each sample was determined and normalised to the same protein concentration. […]

[1] = test system: CCl4-induced liver fibrosis; assay: CCl4-induced liver fibrosis mouse model: liver injury and fibrosis; format: in vivo, C57BL/6 mice; conditions: CCl4 mice
Method: C57BL/6 mice (20 ± 2 g) were obtained from Hangzhou Medical College Experimental Animal Center (Hangzhou, China). The animals were maintained under controlled temperature (22°C ± 1°C), humidity (50%), and light (12 h light/12 h dark). The animals were fed a standard laboratory diet and provided with free access to tap water. All animals received humane care according to institutional animal care guidelines approved by the Experimental Animal Ethical Committee of Hangzhou Medical College. Forty mice were randomly divided into six groups: (1) vehicle control (n = 7); (2) CCl4 model (n = 7); (3) CCl4 + LIN (20 mg/kg) (n = 7); (4) CCl4 + LIN (40 mg/kg) (n = 7); (5) LIN (40 mg/kg) (n = 7); and (6) CCl4 + silymarin (SIL) (200 mg/kg) (n = 5). LIN and SIL were dissolved in 0.5% CMC-Na solution. Mice were administered LIN or SIL (intragastric administration, i.g.) once per day and CCl4 (intraperitoneal injection, i.p.; mixed 1:3 in olive oil, 2 mL/kg) twice per week for 4 weeks. Mice in the vehicle control group received olive oil (i.p. twice a week, 4 weeks) and 0.5% CMC-Na (i.g. every day, 4 weeks). After treatment, the mice were sacrificed, and plasma and liver tissues were collected and further analysed.
Serum was collected from blood samples after centrifugation at 860 × g for 15 min. Serum ALT (Nanjing Jiancheng Bioengineering Institute, C010-2-1) and AST (Nanjing Jiancheng Bioengineering Institute, C009-2-1) activities were measured using kits, according to the manufacturer’s instructions. Liver hydroxyproline content was determined using the alkaline hydrolysis method, as described in the kits. Serum levels of laminin (LN) were measured using ELISA kits, according to the manufacturer’s instructions (Shanghai YANJIN Biological Technology Co., LTD, F12019).
Total RNA was extracted from liver tissues and LX-2 cells using the TRIzol reagent. cDNA was synthesised using a PrimeScript RT Master Mix kit. Real-time PCR was performed using SYBR Green premix according to the manufacturer’s instructions. Relative expression of target genes was normalised to actin, analysed by the delta-delta-CT method and given as a ratio compared with the vehicle control. Primer sequences used in this study are listed in Supplementary Material.
A sample of the liver was fixed in 10% phosphate-buffered saline (PBS)-formalin solution and embedded in paraffin. Samples were sectioned (5 μm) and stained with haematoxylin-eosin (H&E) for histological observation of liver injury and stained with Masson’s trichrome and Sirius red to observe collagen deposition in the liver.

[2] = LIN 20 and 40 mg/kg i.g. once per day, 4 weeks, p < 0.05
[3] = LIN 20 and 40 mg/kg, dose-dependent

In the case of `C/C1=C\CCC2=C[C@@H](OC2=O)c2c(C)coc2C1` [LIN, linderalactone], the “fibrogenic gene expression (e.g., ACTA2, VIM, TGF-β, FN1, DES, COL1A1)” value (LX-2 cells; 10 μM LIN, 24 h, qPCR) is reported as “significantly decreased”, the “phosphorylation level of smad2/3” value (LX-2 cells; LIN 5 and 10 μM, Western blot) is reported as “significant reduced” and the “hepatic Col1a1 mRNA level” value ([1]; LIN 20 mg/kg) is reported as “significantly reversed”. The “hepatic Col3a1 mRNA level” value ([1]; LIN 20 mg/kg) was “significantly reversed”, the “collagen deposition (Masson's trichrome, Sirius red)” value ([1]; LIN 40 mg/kg) was “mild collagen deposition in the liver without bridging fibrosis” and the “serum ALT level” value [1, 2] was “significantly reduced”. For the same compound, the “serum AST level” value [1, 2] was “significantly reduced”, the liver hydroxyproline level [1, 3] was “decreased” and the serum laminin level [1, 3] was “decreased”. For the same compound, the “CCl4-induced liver damage (H&E: immune cell infiltration, swelling, necrosis of hepatocytes)” value ([1]; LIN treatment) was “ameliorated” and the “extent of collagen deposition (Masson's trichrome, Sirius red)” value ([1]; LIN, dose-dependent) was “ameliorated”.
